Experimental data reported in patent publication US20230172915A1, “DHODH INHIBITOR FOR THE TREATMENT OF COVID-19” (priority 2020, published 2023).
Like-named read-outs stand apart in the source and are kept apart here.

Tests used:
[1] = test system: PBMCs plus venular endothelial cells (sAg); assay: BioMAP profiling, SAg system; format: cell-based; conditions: for inhibition at 0.01 µM: 10 nM; for inhibition at 0.1 µM: 100 nM
Experimental: (§1) The effect of PTC299 on cytokine production was assessed using BioMAP profiling (BioSeek, now part of Eurofins). The BioMAP system is comprised of complex co-cultures of primary peripheral blood mononuclear cells (PBMCs) with other cell types including B cells, fibroblasts, and endothelial cells allowing for the measurement of physiologically relevant biomarker readouts of the activity of a compound. Using this system, cytokine production was evaluated in the following models of primary cell disease models: • Peripheral blood mononuclear cells (PBMCs) plus venular endothelial cells (sAg) • PBMCs plus B cells (BT) • PBMCs plus fibroblasts (HDFSAg) • TH2 cells plus venular endothelial cells (/TH2).
(§2) Abbreviations in Table 4: BCR, B-cell receptor; BT System, co-culture of CD19+ B cells and PBMC that utilizes BCR stimulation and sub-mitogenic TCR stimulation; HDFSAg system, co-culture of human primary dermal fibroblasts and PBMC that is stimulated with sub-mitogenic TCR levels; IL, interleukin; PBMC, Peripheral Blood Mononuclear Cell; SAg system, co-culture of endothelial cells and PBMC stimulated with mitogenic levels of TCR ligands; TCR, T-cell receptor; /TH2 system, co-culture of endothelial cells and Th2 blasts stimulated with TCR ligands and cytokines; Th2, T helper type 2; VEGF, vascular endothelial growth factor.

DHODH = assay: Study PTC299-ONC-007-NF2: serum DHO and VEGF in neurofibromatosis type 2 patients; conditions: 100 mg BID
[2] = test system: HT1080 human fibrosarcoma cells; assay: De novo pyrimidine nucleotide synthesis from 15N-glutamine in HT1080 cells; format: cell-based; conditions: 100 nM
Description: In this Example, fibrosarcoma cells were used to investigate the effect of PTC299 on pyrimidine nucleotide synthesis. Glutamine is an upstream precursor of dihydroorotic acid in the de novo pyrimidine synthesis pathway, as illustrated in FIG. 1.

[3] = Single- and repeat-dose toxicology studies in dogs
[4] = test system: primary acute myeloid leukemia (AML) blast cells; assay: Primary AML blast cell assay with and without uridine; format: cell-based; conditions: uridine 0, 3, 10, 30, or 100 µM
Experimental: FIG. 5 is a plot showing the fraction of total blasts relative to DMSO control vs PTC299 concentration in nM, from an assay of the ability of PTC299 to suppress DHODH activity in the presence of increasing concentrations of uridine (0, 3, 10, 30, or 100 µM) .
The ability of PTC299 to inhibit DHODH was further tested using primary acute myeloid leukemia (AML) blast cells that are reliant upon the de novo pyrimidine nucleotide pathway to obtain pyrimidine nucleotides.

Rift Valley fever virus = assay: microbe, parasite or virus in culture; format: cell-based; conditions: HeLa, read-out: EC50 Rift Valley fever virus
[5] = Rhesus monkey single oral dose PK; format: in vivo, Rhesus monkeys; conditions: single oral 10 mg/kg dose
Experimental: FIG. 10 is a plot of PTC299 plasma concentration (µg/mL) vs hours of plasma dihydroorotate (DHO) and PTC299 concentrations after a single dose of PTC299 was administered to a single monkey.
The dosing regimen used in the current study was also supported by experiments performed in Rhesus monkeys. Monkeys were given a single oral 10 mg/kg dose of PTC299. The DHO plasma level increased after dosing, peaked at 24 hours and then decreased, as illustrated in FIG. 10. […] The AUC for PTC299 is consistent with that observed in the healthy volunteer study PTC299-ONC-002-HV indicating this exposure would result in inhibition of DHODH and supports the use of the 200 mg BID dosing regimen in the current study.

[6] = Clinical studies of PTC299 (oncology patients, healthy volunteers): tolerability; format: in vivo, human
Description: PTC299 has been extensively evaluated in 9 clinical studies; 5 were in oncology (n=134) and 4 were in healthy volunteers (n=169).
The rationale for this dosing is based on the following: • The dosing regimen utilizes results from PTC’s extensive clinical, safety, and clinical pharmacology experience with the capsule formulation of PTC299 that was used in prior solid tumor clinical studies. • The tablet formulation has approximately 40% relative bioavailability compared with the capsule when administered with food. • The 200 mg BID dosing for 7 days have been tested previously in healthy volunteers in study PTC299-ONC-002-HV with no serious adverse events. […] The dosing of 200 mg BID for the first 7 days will raise the exposure of the drug quickly to accommodate the need for rapid onset of PTC299 activity..

Ebola virus = assay: microbe, parasite or virus in culture; format: cell-based; conditions: Zaire ebolavirus, Vero, read-out: EC50 Ebola virus
[7] = test system: TH2 cells plus venular endothelial cells (/TH2); assay: BioMAP profiling, /TH2 system; format: cell-based; conditions: Endothelial cell; for inhibition at 0.1 µM: /TH2, 100 nM
Experimental: as §1, §2

[8] = test system: Chinese hamster ovary cells
[9] = Single- and repeat-dose toxicology studies in rats
[10] = test system: primary acute myeloid leukemia (AML) blast cells; conditions: Cao 2020; cited from earlier work
[11] = Cytotoxicity in Vero cells by intracellular ATP; conditions: African green monkey
West Nile virus = assay: Antiviral activity, West Nile virus (Vero cells); format: cell-based
[12] = AML phase 1b study PTC299-HEM-001-LEU, PK; format: in vivo, human; conditions: 80 mg QD tablet loading dose for 7 days followed by 40 mg maintenance dose (cohort 2), AML patients
Experimental: It was anticipated that elimination would not be saturated with 50 mg tablet QD after 7 days of 200 mg tablet BID dosing. This is supported by results from the ongoing AML open-label, non-randomized, phase 1b study, PTC299-HEM-001-LEU.

COc1ccc([C@H]2c3[nH]c4ccc(Cl)cc4c3CCN2C(=O)Oc2ccc(Cl)cc2)cc1 [PTC299, 4-chlorophenyl (S)-6-chloro-1-(4-methoxyphenyl)-1,3,4,9-tetrahydro-2H-pyrido[3,4-b]indole-2-carboxylate]
inhibition at 0.01 µM ([1]; read-out: % Inhibition IL-8): 27%
inhibition at 0.01 µM ([1]; read-out: % Inhibition MCP-1): 31%
inhibition at 0.1 µM ([1]; read-out: % Inhibition CD40): 29%
inhibition at 0.1 µM ([1]; read-out: % Inhibition IL-8): 29%
inhibition at 0.1 µM ([1]; read-out: % Inhibition MCP-1): 45%
inhibition at 0.1 µM ([1]; read-out: % Inhibition Proliferation): 23%
serum VEGF levels (DHODH; 8 weeks versus pre-dose): significantly reduced after 8 weeks of treatment
serum DHO levels (DHODH; post-dose versus pre-dose): elevated at 8 or 16 weeks
suppression of de novo pyrimidine nucleotide biosynthesis [2]: resulted in suppression of de novo pyrimidine nucleotide biosynthesis
alanine aminotransferase, aspartate aminotransferase, and total bilirubin ([3]; dogs dosed through 28 days): no increases
histopathologic findings in the liver ([3]; dogs dosed through 28 days): no histopathologic findings in the liver
PTC299-related mortality ([3]; dogs, toxicology studies): No PTC299-related mortality was observed
effect of exogenous uridine on PTC299-dependent cytotoxicity [4]: reversal of the effects of PTC299-dependent cytotoxicity by the addition of exogenous uridine
EC50 (Rift Valley fever virus): 0.013 µM
AUC ([5]; plasma, read-out: AUC of PTC299): 22500 ng·h/mL
Cmax ([5]; plasma, read-out: Cmax of PTC299): 2510 ng/mL
half-life ([5]; plasma, read-out: Half-life of PTC299 (converted)): 33 h
Tmax of PTC299 [5]: 2 hr post-dose
tolerability across 9 clinical studies ([6]; oncology n=134, healthy volunteers n=169, range of dosing regimens): generally well tolerated
dose-related hepatotoxicity ([6]; prior clinical studies): observed at higher doses and longer treatment durations (>85 days)
EC50 (Ebola virus): 0.009 µM
inhibition at 0.01 µM ([7]; /TH2, 10 nM, read-out: % Inhibition MCP-1 (converted)): 21%
inhibition at 0.1 µM ([7]; read-out: % Inhibition MCP-1 (converted)): 25%
inhibition at 0.1 µM ([7]; read-out: % Inhibition sIL-17): 23%
chromosomal aberration assay [8]: negative
alanine aminotransferase, aspartate aminotransferase, and total bilirubin ([9]; rats dosed through 28 days): no increases
histopathologic findings in the liver ([9]; rats dosed through 28 days): no histopathologic findings in the liver
PTC299-related mortality ([9]; rats, toxicology studies): No PTC299-related mortality was observed
effect on primary AML blast cells [10]: caused a G1/S cell-cycle arrest, inhibition of proliferation, and cell death
CC50 at 48 h [11]: > 10 µM
EC50 (West Nile virus): 0.01 µM
time to steady state [12]: ~15 days
